The values that follow are results of earlier work, collected in US20150216798A1, “NOVEL ORALLY ADMINISTERED PHARMACEUTICAL FORMULATIONS” (Sanovel Ilac Sanayi Ve Ticaret Anonim Sirketi, priority 2012, published 2015).

The structures appear in SMILES notation. Bounds are passed on as bounds.

The conditions of this series: after oral administration.

Consider `CN1CC(=O)N2[C@H](c3ccc4c(c3)OCO4)c3[nH]c4ccccc4c3C[C@@H]2C1=O` [Tadalafil, (6R-trans)-6-(1,3-benzodioxol-5-yl)-2,3,6,7,12,12a-hexahydro-2-methyl-pyrazine [1′,2′:1,6]pyrido[3,4-b]indol-1,4-dion], for which the duration of effect was no more than 36 h and the onset of action was 15 min.
